Data reported in patent US11123330B2, “Methods and compositions for inhibiting mutant EGFR signaling” (The Governing Council of the University of Toronto, priority 2017, dated 2021).
Entries after “also recorded” stand apart in the source; their conditions may differ. Each block holds one compound with its values, some of them ahead of it.

Legend:
[1] = target: T1, EGFR-WT (Homo sapiens, UniProt P00533); assay: MaMTH assay, EGFR-WT bait with Shc1 prey; type: cell-based; conditions: for WT > 50% Inhibition / Average Percent: EGFR-WT bait, Shc1 prey; for Average Percent: retest in triplicate, MaMTH signal remaining (low = inhibition); for interaction / complex formation with Shc1 (MaMTH, words): EGFR WT bait
T1 construct: change the phosphorylation status of full-length EGFR proteins in the context of living cells; expressed in transfected cells

[2] = target: T2, EGFR-L858R-T790M-C797S (Homo sapiens, UniProt P00533, C797S/L858R/T790M); assay: MaMTH / MaMTH-DS assay, EGFR-L858R-T790M-C797S bait with Shc1 prey; type: cell-based; conditions: retest in triplicate, MaMTH signal remaining (low = inhibition)
T2 construct: change the phosphorylation status of full-length EGFR proteins in the context of living cells; expressed in transfected cells

[3] = tested on: reporter cells expressing FGFR4 bait; assay: Viability of reporter cells expressing FGFR4 bait; type: cell-based
Procedure: (§1) Cell viability assays. MaMTH stable bait cells or Ba/F3 cells were seeded into 96 well plates at 10,000 cells per well. For MaMTH stable cells, the cells were treated the next day with each inhibitor in a dose-dependent manner in addition to 0.5 ug/mL tetracyline to induce bait expression. For BaF3 cells, the cells were treated with each compound the same day as seeding. After 72 hours of drug treatment, cell viability was measured using the CellTiter-Glo assay (Promega).

[4] = target: T3, AXL (Homo sapiens, UniProt P30530); assay: MaMTH-DS assay, AXL bait with Shc1 prey; type: cell-based
T3 construct: expressed in transfected cells
T3 sequence (P30530 26-894): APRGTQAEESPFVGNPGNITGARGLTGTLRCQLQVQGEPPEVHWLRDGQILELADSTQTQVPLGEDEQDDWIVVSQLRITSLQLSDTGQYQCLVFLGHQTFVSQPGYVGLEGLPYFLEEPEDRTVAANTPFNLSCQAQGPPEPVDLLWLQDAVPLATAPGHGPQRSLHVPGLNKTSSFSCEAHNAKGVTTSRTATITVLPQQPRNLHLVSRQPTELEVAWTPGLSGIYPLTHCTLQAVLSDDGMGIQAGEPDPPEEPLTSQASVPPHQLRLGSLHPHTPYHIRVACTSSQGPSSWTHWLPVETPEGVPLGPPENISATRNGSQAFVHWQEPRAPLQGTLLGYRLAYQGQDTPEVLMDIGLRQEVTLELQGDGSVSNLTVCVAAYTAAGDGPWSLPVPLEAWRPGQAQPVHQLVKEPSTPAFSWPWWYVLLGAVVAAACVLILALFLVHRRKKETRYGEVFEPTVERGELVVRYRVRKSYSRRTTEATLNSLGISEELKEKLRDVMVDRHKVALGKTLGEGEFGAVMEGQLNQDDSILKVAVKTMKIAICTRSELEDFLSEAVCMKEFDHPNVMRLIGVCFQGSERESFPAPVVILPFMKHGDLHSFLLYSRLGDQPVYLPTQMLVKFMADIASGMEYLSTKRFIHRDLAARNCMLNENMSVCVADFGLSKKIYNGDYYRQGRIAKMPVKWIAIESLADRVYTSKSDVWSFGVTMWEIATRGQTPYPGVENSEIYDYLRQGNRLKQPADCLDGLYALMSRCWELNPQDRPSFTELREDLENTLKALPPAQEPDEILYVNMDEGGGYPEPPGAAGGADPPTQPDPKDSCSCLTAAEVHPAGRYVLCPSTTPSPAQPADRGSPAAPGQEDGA
From the text: To test MaMTH-DS sensitivity and its potential suitability for use in RTK drug screening, we selected several RTKs whose dysfunction is associated with cancer, and prepared stable MaMTH-DS ‘baits’ in our reporter cell lines. We then performed MaMTH-DS assays in the presence of transfected Shcl functional adapter protein ‘prey’ and small-molecule TKIs, including both control molecules and compounds known to specifically target the function of the corresponding RTKs. First, we examined the response of the RTK MET to the TKIs Crizotinib and Erlotinib using MaMTH-DS.
MaMTH assays. Cells stably expressing bait of interest (EGFR, MET, FGFR4, ALK, AXL) were seeded into 96-well TC-treated plates and grown at 37° C./5% CO2 overnight in DMEM/10% FBS/1% PS to ˜50-60% confluency. Cells were transfected with 50 ng/well of Nub-Shc1 ‘prey’ protein by calcium phosphate precipitation. Five hours after transfection, media was aspirated out and cells were treated with 100 uL of fresh media containing specific compound and 0.5 ug/ml of tetracyline to induce bait expression. After 24 hours, luciferase activity was measured by chemoluminescence.

[5] = tested on: reporter cells expressing AXL bait; assay: Viability of reporter cells expressing AXL bait; type: cell-based
Procedure: as §1

[6] = target: T4, FGFR4 (Homo sapiens, UniProt P22455); assay: MaMTH-DS assay, FGFR4 bait with Shc1 prey; type: cell-based
T4 construct: expressed in transfected cells
T4 sequence (P22455 22-802): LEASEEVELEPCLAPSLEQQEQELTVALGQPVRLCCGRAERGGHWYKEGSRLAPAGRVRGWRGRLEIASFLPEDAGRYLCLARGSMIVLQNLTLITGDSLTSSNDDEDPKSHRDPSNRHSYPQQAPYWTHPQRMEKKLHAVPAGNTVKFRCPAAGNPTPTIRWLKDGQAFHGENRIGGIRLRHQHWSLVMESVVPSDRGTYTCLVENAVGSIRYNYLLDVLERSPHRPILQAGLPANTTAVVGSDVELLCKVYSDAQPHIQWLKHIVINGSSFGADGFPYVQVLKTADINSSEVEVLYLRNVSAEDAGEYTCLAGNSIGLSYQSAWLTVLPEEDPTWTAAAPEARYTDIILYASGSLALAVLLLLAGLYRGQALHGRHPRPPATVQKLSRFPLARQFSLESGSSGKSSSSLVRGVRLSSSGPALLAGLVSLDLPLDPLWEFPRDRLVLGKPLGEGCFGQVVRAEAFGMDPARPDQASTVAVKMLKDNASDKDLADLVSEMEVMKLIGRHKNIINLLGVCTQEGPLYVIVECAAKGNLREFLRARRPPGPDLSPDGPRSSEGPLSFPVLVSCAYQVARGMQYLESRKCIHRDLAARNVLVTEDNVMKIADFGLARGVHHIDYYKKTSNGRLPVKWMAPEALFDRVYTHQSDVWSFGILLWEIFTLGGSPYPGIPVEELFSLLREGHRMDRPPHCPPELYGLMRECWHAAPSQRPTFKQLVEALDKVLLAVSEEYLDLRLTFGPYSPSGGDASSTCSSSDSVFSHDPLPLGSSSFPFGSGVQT

[7] = target: T5, wild-type EGFR (Homo sapiens, UniProt P00533); assay: In vitro kinase assay, EGFR WT kinase domain; type: biochemical; conditions: up to 10 micromolar
T5 construct: recombinant proteins of the kinase domain of wild-type EGFR; purchased Reaction Biology Corporation

[8] = target: EGFR ex19del/T790M/C797S (Homo sapiens, UniProt P00533, C797S/DEL746-750/T790M); assay: In vitro kinase assay, EGFR ex19del/T790M/C797S kinase domain; type: biochemical
[9] = target: T6, ALK (Homo sapiens, UniProt Q9UM73); assay: MaMTH-DS assay, ALK bait with Shc1 prey; type: cell-based
T6 construct: expressed in transfected cells
T6 sequence (Q9UM73 19-1620): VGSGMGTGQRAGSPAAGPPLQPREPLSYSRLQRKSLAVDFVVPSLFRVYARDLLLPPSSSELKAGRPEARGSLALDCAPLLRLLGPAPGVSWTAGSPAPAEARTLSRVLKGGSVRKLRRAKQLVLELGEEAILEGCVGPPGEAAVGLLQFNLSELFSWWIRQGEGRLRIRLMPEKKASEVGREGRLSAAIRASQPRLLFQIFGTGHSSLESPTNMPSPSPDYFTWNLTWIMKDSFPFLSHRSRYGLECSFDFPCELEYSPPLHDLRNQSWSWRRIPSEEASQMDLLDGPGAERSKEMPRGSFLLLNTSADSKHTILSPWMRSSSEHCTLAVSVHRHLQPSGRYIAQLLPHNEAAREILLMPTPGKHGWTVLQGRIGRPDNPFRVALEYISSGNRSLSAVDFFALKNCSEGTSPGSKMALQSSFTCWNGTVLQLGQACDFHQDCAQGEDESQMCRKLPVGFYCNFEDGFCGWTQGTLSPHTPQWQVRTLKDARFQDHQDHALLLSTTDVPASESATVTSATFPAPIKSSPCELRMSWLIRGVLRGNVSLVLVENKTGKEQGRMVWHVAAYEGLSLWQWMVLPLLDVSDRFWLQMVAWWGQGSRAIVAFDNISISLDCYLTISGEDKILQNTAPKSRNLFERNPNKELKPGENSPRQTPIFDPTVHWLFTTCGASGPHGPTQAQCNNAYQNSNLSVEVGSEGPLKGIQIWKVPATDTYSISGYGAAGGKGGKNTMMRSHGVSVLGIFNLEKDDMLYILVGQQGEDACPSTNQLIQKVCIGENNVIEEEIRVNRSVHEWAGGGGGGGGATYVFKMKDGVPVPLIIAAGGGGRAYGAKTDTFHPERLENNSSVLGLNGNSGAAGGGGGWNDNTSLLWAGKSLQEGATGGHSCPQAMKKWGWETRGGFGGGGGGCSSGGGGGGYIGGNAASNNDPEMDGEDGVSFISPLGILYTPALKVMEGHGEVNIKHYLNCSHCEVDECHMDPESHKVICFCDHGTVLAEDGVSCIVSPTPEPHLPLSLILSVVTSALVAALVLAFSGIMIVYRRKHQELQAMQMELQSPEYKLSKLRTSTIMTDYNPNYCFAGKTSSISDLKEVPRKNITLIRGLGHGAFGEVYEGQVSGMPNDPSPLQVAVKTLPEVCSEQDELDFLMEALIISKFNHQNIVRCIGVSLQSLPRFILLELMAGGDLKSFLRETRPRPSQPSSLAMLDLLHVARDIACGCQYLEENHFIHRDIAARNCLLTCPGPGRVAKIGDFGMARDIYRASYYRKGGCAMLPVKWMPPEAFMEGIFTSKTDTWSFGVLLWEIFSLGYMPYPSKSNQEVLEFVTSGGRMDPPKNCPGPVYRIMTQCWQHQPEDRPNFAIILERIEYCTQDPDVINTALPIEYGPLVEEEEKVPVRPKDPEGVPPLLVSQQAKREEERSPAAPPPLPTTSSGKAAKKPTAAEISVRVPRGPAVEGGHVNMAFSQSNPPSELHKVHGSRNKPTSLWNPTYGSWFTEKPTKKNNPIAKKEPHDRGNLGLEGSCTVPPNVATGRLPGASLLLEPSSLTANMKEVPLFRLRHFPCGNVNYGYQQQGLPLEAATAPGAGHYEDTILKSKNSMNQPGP

[10] = target: T7, MET (Homo sapiens, UniProt P08581); assay: MaMTH-DS assay, MET bait with Shc1 prey; type: cell-based
T7 construct: expressed in transfected cells
T7 sequence (P08581 308-1390 limits assumed): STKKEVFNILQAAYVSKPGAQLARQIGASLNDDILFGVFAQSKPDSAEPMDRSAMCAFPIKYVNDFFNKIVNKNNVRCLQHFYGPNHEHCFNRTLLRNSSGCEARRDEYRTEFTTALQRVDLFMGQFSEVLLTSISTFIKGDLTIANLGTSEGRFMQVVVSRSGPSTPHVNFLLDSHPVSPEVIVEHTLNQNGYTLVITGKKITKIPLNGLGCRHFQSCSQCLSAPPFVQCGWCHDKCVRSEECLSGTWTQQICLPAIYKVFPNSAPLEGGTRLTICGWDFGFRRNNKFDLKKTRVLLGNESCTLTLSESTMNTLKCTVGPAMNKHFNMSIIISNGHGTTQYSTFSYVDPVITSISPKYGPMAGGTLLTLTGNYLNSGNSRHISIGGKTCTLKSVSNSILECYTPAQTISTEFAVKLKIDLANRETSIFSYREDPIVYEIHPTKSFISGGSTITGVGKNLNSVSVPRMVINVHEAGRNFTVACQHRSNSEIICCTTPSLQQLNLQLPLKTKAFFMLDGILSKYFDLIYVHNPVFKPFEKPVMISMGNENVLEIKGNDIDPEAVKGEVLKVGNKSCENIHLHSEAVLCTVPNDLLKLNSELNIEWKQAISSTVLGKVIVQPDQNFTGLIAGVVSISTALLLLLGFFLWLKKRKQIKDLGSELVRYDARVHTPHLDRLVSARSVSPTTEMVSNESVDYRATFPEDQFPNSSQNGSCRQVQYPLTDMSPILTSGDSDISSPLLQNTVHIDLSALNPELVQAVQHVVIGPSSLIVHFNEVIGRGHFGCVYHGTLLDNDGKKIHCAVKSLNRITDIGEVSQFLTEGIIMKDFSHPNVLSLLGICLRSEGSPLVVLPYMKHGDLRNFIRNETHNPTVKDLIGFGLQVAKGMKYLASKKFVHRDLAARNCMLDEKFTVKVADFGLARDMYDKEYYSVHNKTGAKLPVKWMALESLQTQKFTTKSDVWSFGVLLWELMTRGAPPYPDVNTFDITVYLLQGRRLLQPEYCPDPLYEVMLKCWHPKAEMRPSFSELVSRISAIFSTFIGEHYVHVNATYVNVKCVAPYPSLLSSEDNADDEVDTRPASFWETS
T7 sequence (P08581 25-307 partner limits assumed): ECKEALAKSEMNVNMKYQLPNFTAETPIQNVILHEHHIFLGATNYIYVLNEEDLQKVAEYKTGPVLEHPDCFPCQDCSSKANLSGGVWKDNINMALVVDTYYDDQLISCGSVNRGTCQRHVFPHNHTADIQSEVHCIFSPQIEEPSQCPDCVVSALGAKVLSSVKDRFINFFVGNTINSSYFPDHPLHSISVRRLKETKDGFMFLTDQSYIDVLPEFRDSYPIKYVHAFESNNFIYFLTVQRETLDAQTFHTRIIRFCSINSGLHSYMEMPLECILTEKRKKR

[11] = tested on: reporter cells expressing MET bait; assay: Viability of reporter cells expressing MET bait; type: cell-based
[12] = tested on: EGFR and downstream signaling molecules in PC9 EGFR-ex19del-T790M-C797S cells; assay: EGFR activation and downstream signaling in PC9 EGFR-ex19del-T790M-C797S cells; type: cell-based
[13] = tested on: EGFR double mutants; assay: In vitro kinase assay, EGFR double mutants; type: biochemical
[14] = tested on: Ba/F3 cells expressing EGFR-ex19del-T790M-C797S; assay: Ba/F3 cell viability (CellTiter-Glo), EGFR-ex19del-T790M-C797S; type: cell-based; conditions: for cell viability in combination with anti-EGFR antibody: with 68 nM Cetuximab or 140 nM Panitumumab
[15] = tested on: PC9 EGFR ex19del/T790M/C797S cells; assay: Cell viability, PC9 EGFR ex19del/T790M/C797S cells; type: cell-based; conditions: for cell viability in combination with compound 5213777: with 50 nM of compound 5213777, 72 hours, compared to alone; for cell viability in combination with Panitumumab: with 10 ug/ml Panitumumab, 72 hours
[16] = tested on: Ba/F3 cells expressing EGFR-L858R-T790M-C797S; assay: Ba/F3 cell viability (CellTiter-Glo), EGFR-L858R-T790M-C797S; type: cell-based; conditions: for cell viability in combination with anti-EGFR antibody: with 68 nM Cetuximab or 140 nM Panitumumab
[17] = tested on: CFBE cells; assay: Caspase 3 and 7 activity, CFBE cells; type: cell-based
[18] = tested on: EGFR and downstream signalling molecules in Ba/F3 EGFR-ex19del-T790M-C797S cells; assay: Western analysis of EGFR and downstream signalling, Ba/F3 EGFR-ex19del-T790M-C797S; type: cell-based
[19] = tested on: PC9 EGFR ex19del/T790M/C797S organoids; assay: Organoid viability, PC9 EGFR ex19del/T790M/C797S organoids; type: cell-based; conditions: 72 hours with compound
[20] = tested on: PC9 EGFR ex19del/T790M/C797S cells; assay: Caspase 3 and 7 activity, PC9 EGFR ex19del/T790M/C797S cells; type: cell-based
[21] = tested on: EGFR and downstream signalling molecules in Ba/F3 EGFR-L858R-T790M-C797S cells; assay: Western analysis of EGFR and downstream signalling, Ba/F3 EGFR-L858R-T790M-C797S; type: cell-based
[22] = tested on: EGFR ex19del-T790M; assay: In vitro kinase assay, EGFR ex19del-T790M; type: biochemical
[23] = target: T8, EGFR L858R/T790M (Homo sapiens, UniProt P00533, L858R/T790M); assay: MaMTH assay, EGFR L858R/T790M bait with Shc1 prey; type: cell-based
T8 construct: change the phosphorylation status of full-length EGFR proteins in the context of living cells; expressed in transfected cells

[24] = tested on: reporter cells expressing ALK bait; assay: Viability of reporter cells expressing ALK bait; type: cell-based

WT > 50% Inhibition [1]: YES
Average Percent [1]: 21.5%
Average Percent [2]: 11.7%
Structure (SMILES): CC1CC(Nc2ccccc2)c2ccccc2N1C(=O)c1cccs1 (stereo not drawn) [Compound 5304079]

MaMTH-DS reporter activity [6]: not
effect on kinase activity [7]: no kinase inhibitory activity
MaMTH-DS reporter activity [9]: not
interaction / complex formation with Shc1 (MaMTH, words) [1]: not
Average Percent [1]: 105.3%
Average Percent [2]: 27.8%
MaMTH-DS interaction with Shc1 [10]: not
MaMTH-DS reporter activity [4]: not
Structure (SMILES): CCN(CC)c1ccc2cc(-c3nc4ccccc4o3)c(=O)oc2c1 [Compound 5213777, 3-(1,3-benzoxazol-2-yl)-7-(diethylamino)-2H-chromen-2-one]
effect on kinase activity [8]: no kinase inhibitory activity; also recorded: does not inhibit the kinase activity

effect on kinase activity [13]: inhibits the kinase activity
effect on kinase activity [7]: no significant effect
effect on kinase activity [8]: strongly inhibited
Average Percent [1]: 129.3%
Average Percent [2]: 10.5%
Structure (SMILES): CO[C@@H]1[C@H](N(C)C(=O)c2ccccc2)C[C@H]2O[C@]1(C)n1c3ccccc3c3c4c(c5c6ccccc6n2c5c31)C(=O)NC4 [Midostaurin, N-[(9S,10R,11R,13R)-2,3,10,11,12,13-hexahydro-10-methoxy-9-methyl-1-oxo-9,13-epoxy-1H,9H-diindolo[1,2,3-gh:3′,2′,1′-lm]pyrrolo[3,4-j][1,7]benzodiazonin-11-yl]-N-methylbenzamide]
phosphorylation and/or expression of EGFR and downstream signaling molecules [12]: inhibitory effect
cell viability ([14]; compound alone, 72 hours): robust, dose-dependent reduction
cell viability in combination with anti-EGFR antibody [14]: Enhanced effect
cell viability in combination with compound 5213777 [15]: increased effect
cell viability in combination with Panitumumab [15]: Enhanced effects
cell viability ([16]; compound alone, 72 hours): robust, dose-dependent reduction
cell viability in combination with anti-EGFR antibody [16]: Enhanced effect
caspase 3 and 7 activity [17]: not observed
phosphorylation and/or expression of EGFR and downstream signalling molecules [18]: strongest response
viability of PC9 organoids [19]: dose-dependent reduction
caspase 3 and 7 activity [20]: dose-dependent activation
phosphorylation and/or expression of EGFR and downstream signalling molecules [21]: strongest response

effect on kinase activity [8]: most robust inhibition
interaction / complex formation with Shc1 (MaMTH, words) [1]: not
effect on kinase activity [22]: preferentially inhibits
interaction / complex formation with Shc1 (MaMTH, words) [23]: inhibited complex formation
Structure (SMILES): CCc1nc(C(N)=O)c(Nc2ccc(N3CCC(N4CCN(C)CC4)CC3)c(OC)c2)nc1NC1CCOCC1 [Gilteritinib, 6-ethyl-3-[3-methoxy-4-[4-(4-methylpiperazin-1-yl)piperidin-1-yl]anilino]-5-(oxan-4-ylamino)pyrazine-2-carboxamide]
phosphorylation and/or expression of EGFR and downstream signaling molecules [12]: inhibits EGFR activation and downstream signaling
cell viability in combination with compound 5213777 [15]: increased effect
cell viability in combination with Panitumumab [15]: significantly enhanced
viability of PC9 organoids [19]: dose-dependent reduction

WT > 50% Inhibition [1]: YES
Average Percent [1]: 6.2%
Average Percent [2]: 0.9%
Structure (SMILES): O=c1c(Cl)c(Cl)cnn1Cc1ccccc1 [Compound 5357830]

MaMTH-DS reporter activity [6]: not
MaMTH-DS interaction with Shc1 [10]: not
MaMTH-DS reporter activity [4]: not
Structure (SMILES): C#Cc1cccc(Nc2ncnc3cc(OCCOC)c(OCCOC)cc23)c1 [Erlotinib]

The next lines start with the compound.

Structure (SMILES): C=CC(=O)Nc1cccc(C)c1Nc1ncc2cc(-c3c(Cl)c(OC)cc(OC)c3Cl)ccc2n1 [BLU9931]
reporter cell viability [3]: no effect

Structure (SMILES): COc1cc2c(Oc3ccc(NC(=O)C4(C(=O)Nc5ccc(F)cc5)CC4)cc3F)ccnc2cc1OCCCN1CCOCC1 [Foretinib]
MaMTH-DS reporter activity [4]: strongly reduced, in a dose-dependent manner
reporter cell viability [5]: unaffected

Structure (SMILES): C[C@@H](Oc1cc(-c2cnn(C3CCNCC3)c2)cnc1N)c1c(Cl)ccc(F)c1Cl [Crizotinib]
reporter cell viability [11]: not due to a loss in cell viability

Structure (SMILES): C/C(=C\c1ccc(Cl)cc1)[N+](=O)[O-] [Compound 5238658]
WT > 50% Inhibition [1]: YES
Average Percent [1]: 0.9%
Average Percent [2]: 0.2%

Structure (SMILES): C=CC(=O)Nc1cc(Nc2nccc(-c3cn(C)c4ccccc34)n2)c(OC)cc1N(C)CCN(C)C [Osimertinib]
cell viability in combination with anti-EGFR antibody [14]: does not cause enhanced reduction
cell viability in combination with anti-EGFR antibody ([14]; listed as AZD9291): no such enhancement was evident
cell viability in combination with anti-EGFR antibody [16]: does not cause enhanced reduction
cell viability in combination with anti-EGFR antibody ([16]; listed as AZD9291): no such enhancement was evident
viability of PC9 organoids [19]: not observed
caspase 3 and 7 activity [20]: not observed

Structure (SMILES): COc1cc(N2CCC(N3CCN(C)CC3)CC2)ccc1Nc1ncc(Cl)c(Nc2ccccc2P(C)(C)=O)n1 [Brigatinib]
reporter cell viability [24]: unaffected
